Laboratory results from US20150218514A1, “PROMOTER OF DIFFERENTIATION FROM HEPATIC PROGENITOR CELL INTO HEPATIC CELL, AND USE THEREOF” (NATIONAL CANCER CENTER, priority 2012, published 2015).

Assays:
[1] = test system: Dnmt-1; experiment: Dnmt-1 expression level after differentiation induction of mouse hepatic progenitor cells (real-time PCR); assay type: cell-based; settings: 100 nM siRNA; day 6 of culture; compared to control siRNA (siCtrl)
Description: RNA was quantified by the real-time PCR method using 7300 real-time PCR system (Applied Biosystems) and TaqMan MicroRNA Assays (Applied Biosystems). The miRNA expression was standardized at 6NU6B level. For quantification of messenger RNA, total RNA sample was treated with DNase (TURBO DNA-free kit: Ambion Inc.), and cDNA was synthesized from 1 μg of total RNA by using reverse transcriptase (SuperScript III Reverse Transcriptase: Ambion Inc.). For quantification, SYBR Green (PlatinumSYBR Green quantitative PCR SuperMix UDG: Invitrogen Corporation) was used. The reaction for real-time PCR was performed at 95° C., 2 min, 40 cycles (95° C. for 15 sec, 60° C. for 30 sec). The cDNA expression level was standardized by GAPDH. […]
Mouse hepatic progenitor cells were plated at 4×10^4 cells/cm^2 in a 35 mm cell culture dish coated with type I collagen, […], after confluence (after day 4 of culture), the cells were cultured in the medium for hepatic progenitor cells free of epidermal growth factor (EGF) and fetal bovine serum. […] Total RNA was extracted, and Dnmt-1 was quantified by the real-time PCR method. […]

[2] = test system: Mouse hepatic progenitor cells; experiment: Expression level of hepatocyte markers after differentiation induction of mouse hepatic progenitor cells (real-time PCR); assay type: cell-based; settings: for expression level of Cyp17a1 / expression level of G6pc / expression level of Tat / expression level of albumin: 100 nM siRNA introduced on day 2, day 6 of culture, compared to control siRNA (siCtrl)
Description: To a basal medium for hepatocyte were added 5 μg/mL of insulin (Sigma-Aldrich Corporation), 25 ng/mL of epidermal growth factor (EGF) (Sigma-Aldrich Corporation), 25 ng/mL of hepatocyte growth factor (HGF) (Peprotech), 12.5 ng/mL of oncostatin M (Sigma-Aldrich Corporation), 5×10^−7M hydrocortisone 21-hemisuccinate sodium salt (Sigma-Aldrich Corporation) and 10^−7 M dexamethasone (Sigma-Aldrich Corporation) to prepare the medium.
The hepatic parenchymal cells were diluted with HEPES buffer added with 2% fetal bovine serum to prepare a 10^7 cells/100 μL cell suspension, which was transferred into a 5 mL round-bottom tube. A mouse FcR blocking antibody in EasySep Mouse Biotin Positive Selection Kit ([…] Technologies Inc) was added at 1 μL per 10^7 cells, and the mixture was admixed by tapping the tube. Biotin-labeled anti-E-cadherin antibody (eBioscience) was added at 2-4 μL per 10^7 cells, and the mixture was left standing at room temperature for 15 min while stirring the tube every 2-3 minutes. Biotin Selection Cocktail in EasySep Mouse Biotin Positive Selection Kit was added at 10 μL per 10^7 cells, and the mixture was left standing at room temperature for 15 min with occasional stirring. Magnetic particles in EasySep Mouse Biotin Positive Selection Kit were added at 5 μL per 10^7 cells, and the mixture was stirred and left standing at room temperature for 10 min. To the cell suspension was added a medium for cell isolation, and the volume was adjusted to 2.5 mL. The mixture was suspended with a 2 mL plastic pipette, and the tube was placed in an exclusive magnet ([…] Technologies Inc.) and left standing at room temperature for 10 min. The exclusive magnet containing the tube was reversed for 3 sec, and a non-hepatic progenitor cell fraction was removed (purification operation: first time). The tube was taken out from the exclusive magnet, 2.5 mL of the medium for cell isolation was added, and a purification operation was performed again (purification operation: second time). Furthermore, 2.5 mL of the medium for cell isolation was added, and a purification operation was performed for the third time (purification operation: third time). The cells remaining in the tube are the hepatic progenitor cells.
Total RNA was extracted from cultured cells, liver cancer cell lines, and mouse and human normal hepatic tissues by using miRNeasy Mini Kit (QUIAGEN). The total RNA was quantified by NanoDrop 1000 spectrophotometer (Thermo Fisher Scientific K.K.). The hepatic tissues recovered from mouse were placed in ice-cooled phosphate buffer and disrupted before extraction of RNA. Red blood cells were lysed in Red Blood Cell Lysis Buffer (Sigma-Aldrich Corporation).
RNA was quantified by the real-time PCR method using 7300 real-time PCR system (Applied Biosystems) and TaqMan MicroRNA Assays (Applied Biosystems). The miRNA expression was standardized at 6NU6B level. For quantification of messenger RNA, total RNA sample was treated with DNase (TURBO DNA-free kit: Ambion Inc.), and cDNA was synthesized from 1 μg of total RNA by using reverse transcriptase (SuperScript III Reverse Transcriptase: Ambion Inc.). For quantification, SYBR Green (PlatinumSYBR Green quantitative PCR SuperMix UDG: Invitrogen Corporation) was used. The reaction for real-time PCR was performed at 95° C., 2 min, 40 cycles (95° C. for 15 sec, 60° C. for 30 sec). The cDNA expression level was standardized by GAPDH.

[3] = test system: HepG2 cells; experiment: PAS staining of HepG2 cells (glycogen storage capacity); assay type: cell-based, human; settings: 2.5 μM; culture for 14 days; compared to control without inhibitor
Description: HepG2 cells (ATCC) were plated on a 35 mm cell culture dish at 7×10^5 cells, and cultured in DMEM (Invitrogen Corporation) added with 100 IU/mL penicillin-100 μg/mL streptomycin solution (Invitrogen Corporation), 10% fetal bovine serum (Thermo Fisher Scientific K.K.), and a substance that inhibits DNA methylation (5-aza-2′-deoxycytidine: 5-aza (decitabine): 2.5 μM). The medium was exchanged every day.

[4] = test system: Hepatoblastoma HepG2 cells; experiment: Morphology of HepG2 cells cultured with substance that inhibits DNA methylation caused by Dnmt-1; assay type: cell-based, human; settings: 2.5 μM; day 14 of culture
Description: Hepatoblastoma HepG2 cells (American Type Culture Collection: ATCC) were plated on a 35 mm cell culture dish at 7×10^5 cells, and cultured in DMEM (Invitrogen Corporation) added with 100 IU/mL penicillin-100 μg/mL streptomycin solution (Invitrogen Corporation), 10% fetal bovine serum (Thermo Fisher Scientific K.K.), and a substance that inhibits DNA methylation (5-aza-2′-deoxycytidine: 5-aza (decitabine): 2.5 μM). The medium was exchanged every day.

[5] = test system: HepG2 cells; settings: HepG2 cells treated for 2 days; non-patent document 8; cited from earlier work
[6] = non-patent document 12; cited from earlier work

**Q.** For “siDnmt-1b: double stranded RNA, sense strand SEQ ID NO: 11 and antisense strand SEQ ID NO: 12; siRNA that suppresses expression of Dnmt-1 (sense CAACGGAUCCUAUCACACUTT; antisense AGUGUGAUAGGAUCCGUUGTA; chemistry not given here)”, which “expression of Dnmt-1” value [1] is on record?
**A.** suppressed

**Q.** What about the “expression level of Cyp17a1” value [2] of the same compound?
**A.** high expression levels

**Q.** What about the “expression level of G6pc” value [2] of the same compound?
**A.** high expression levels

**Q.** And the “expression level of Tat” value [2]?
**A.** high expression levels

**Q.** And the “expression level of albumin” value [2]?
**A.** high expression levels

**Q.** What does the source list for “siDnmt-1a: double stranded RNA, sense strand SEQ ID NO: 9 and antisense strand SEQ ID NO: 10; siRNA that suppresses expression of Dnmt-1 (sense GGUAGAGAGUUACGACGAATT; antisense UUCGUCGUAACUCUCUACCTG; chemistry not given here)”?
**A.** expression of Dnmt-1 [1]: suppressed; expression level of Cyp17a1 [2]: high expression levels; expression level of G6pc [2]: high expression levels; expression level of Tat [2]: high expression levels; expression level of albumin [2]: high expression levels

**Q.** With `Nc1ncn([C@H]2C[C@H](O)[C@@H](CO)O2)c(=O)n1` [5-aza-2′-deoxycytidine] as the compound, how does the “glycogen storage capacity (PAS staining)” value [3] read?
**A.** high glycogen storage capacity

**Q.** What about the cell morphology [4] of the same compound?
**A.** morphology specific to mature hepatocyte (multiple nuclei, clear cell boundary)

**Q.** What about the “mRNA level of CYP gene” value [5] of the same compound?
**A.** increases

**Q.** What about the apoptosis [6] of the same compound?
**A.** induce apoptosis

**Q.** What about the cytotoxicity [6] of the same compound?
**A.** high cytotoxicity

**Q.** With `O=C(O)C(Cc1c[nH]c2ccccc12)N1C(=O)c2ccccc2C1=O` (centres unmarked) [RG108] as the compound, how does the expression of albumin ([2]; RG108 20 or 100 μM in medium from day 2, day 7 of culture, compared to control) read?
**A.** high level

**Q.** And the “effect of promoting differentiation into a hepatocyte” value ([2]; among the substances that inhibit DNA methylation)?
**A.** high effect
